Laboratory results as given in patent US6602517B2, “Dietary supplements for treating inflammation-related diseases” (Metagenics, Inc., priority 1999, dated 2003).

Assay: ORAC assay (inhibition of peroxyl-radical quenching of β-phycoerythrin fluorescence)
Assay type: biochemical
Details: for AUC/μg mean: pure samples (100% by weight); for ORAC units (U): pure samples, normalized to Trolox on a weight basis
Excerpt: Method: In order to determine the antioxidant capacity of the subject phytonutrients, the ORAC assay (Cao, G et al., Free Rad. Biol. Med. 14: 303-311[…]) was utilized. This simple procedure relies on the fact that peroxyl radicals will quench the fluorescence of β-phycoerythrin (β-PE) The addition of an antioxidant capable of scavenging these radicals is able to inhibit fluorescence quenching. Fluorescence is monitored as a function of time and the extent of quenching and its inhibition can be determined by calculating the area under the curve (AUC).
A typical reaction will contain 1.67×10^−8 M β-PE in phosphate buffer and 3×10^−3 M 2,2′-azobis(2-amidinopropane)dihydochloride (AAPH) as well as test material. The reaction is initiated by the addition of the peroxyl-radical generating reagent AAPH. […] The difference, or net protection, is equal to AUCsample−AUCblank, and represents the antioxidant capacity of the sample. […] Where one ORAC unit (U) is defined as the net protection provided by 1 nmol/ml Trolox (i.e., 1 μM). […] The final results are normalized to Trolox on a weight basis.
units=(AUC/μg)test/(AUC/μg)trolox.
To generate the data set forth in the present example, samples were prepared in acetonitrile, sometimes with the aid of sonication to facilitate dissolution. One to five μl of sample was added to each 3 ml cuvette, the reaction initiated with AAPH and fluorescence monitored until the quenching was complete. The predicted value for the mixtures was calculated by using the following equation: […]

SMILES	AUC/μg mean [AUC/μg]	ORAC units (U)
Cc1c(C)c2c(c(C)c1O)CCC(C)(C(=O)O)O2 (centres unmarked) [Trolox, reference compound]	8.9	1.00
O=c1c(O)c(-c2ccc(O)c(O)c2)oc2cc(O)cc(O)c12 [quercetin]	14.45	1.62
COc1cc(/C=C/C(=O)CC(=O)/C=C/c2ccc(O)c(OC)c2)ccc1O [curcumin]	15.93	
